Marks after values point to notes of the source that are not given here.
How the values were obtained:
testes of a male pig = assay: Example 3: pattern of testicular shrinkage after intratesticular injection in male pig; type: in vivo; settings: 1 ml of 10% by weight solution per testis
serum testosterone = assay: Example 5: serum testosterone level in Beagle puppies; type: in vivo, Beagle dog; settings: twelve months post-injection
Procedure: (§1) Forty (40) healthy, male Beagle puppies, six months of age, were divided into the following four groups according to testicular width.
(§2) As compared to the control placebo group, serum testosterone level at twelve (12) months post-injection had (1) decreased by 43% in the 25 mg treated group, (2) decreased by 55% in the 30 mg treated group, and (3) decreased by 52% in the 35 mg treated group.

[1] = test system: testes of male Beagle puppies; assay: Example 5: quantitative evaluation of testis histopathology; type: in vivo, Beagle dog; settings: n = 10
Procedure: as §1
Quantitative information provides the strongest evidence that control and treated tissues are either alike or different. In order to obtain the very detailed information about the testes after dorsal cranial injection, quantitative evaluation of the testes histopathology was performed in 40 dogs post-injection.

testes of male puppies = assay: Example 6: clinical trial in 225 male puppies at five sites, semen analysis and physical examination; type: in vivo, dog
Procedure: Four hundred fifty (450) intratesticular injections were performed in the dorsal cranial area of the testes of 225 male puppies (one injection per testis; two testes per dog) at five investigational sites. The 225 puppies ranged in age from 2½ to 10 months and were of various breeds. After the necessary training, all of the investigators mastered the technique of testicular measurement and intratesticular injection (dorsal cranial). Based on the experience of these investigators in the clinical trial, all veterinarians will be able to easily use this dorsal cranial injection technique.
After at least 6 months of follow-up, semen analysis and physical examination were performed as the primary indicators of clinical trial efficacy.

testis = assay: Example 2: beagle puppy injected in each testis, testes excised at 30 months; type: in vivo, beagle dog; settings: 0.25 ml per testis (13.1 mg/ml zinc), dorsal cranial, injected at six months, sacrificed at 30 months; control 6.8 g
Procedure: A beagle puppy weighing 19 lbs at six months of age was injected in each testis with 0.25 ml of a chemical sterilant containing 13.1 mg/ml of zinc as zinc gluconate neutralized by 34.8 mg/ml of l-arginine with the pH adjusted to 7.0 with hydrochloric acid. The injection was into the dorsal cranial portion of the testis as could best be estimated externally.
The treated animal was sacrificed at 30 months of age when he weighed 31 lbs. The testes were excised and each weighed 3.5 g.
A control beagle weighing 18 lbs at six months was housed with the treated animal. This animal was also sacrificed at 30 months. The control dog weighed 30 lbs and each testis weighed 6.8 g. A histological section of the rete testis of the control animal was taken and a light micrograph of the section at 10× is shown in FIG. 2.

[2] = Example 5: body homeostasis, clinical observations and testicular measurement in Beagle puppies; type: in vivo, Beagle dog; settings: 25, 30 or 35 mg per testis
Procedure: as §1
The body weight of all dogs increased.
as §2

[3] = test system: testes of sexually mature male dogs; assay: Example 7: semen evaluation of 53 sexually mature male dogs; type: in vivo, dog; settings: six months post-injection, one of 53 dogs
Procedure: Dosage was based on testicular width according to the following table.
Semen analysis of all dogs prior to injection indicated normal fertility parameters. All of the dogs were followed for six months post-injection, and semen analysis was performed at 2 month intervals for a total of three times.

[4] = test system: testes of male Beagle puppies; assay: Example 5: semen analysis of Beagle puppies; type: in vivo, Beagle dog
Procedure: as §1
Semen analysis was performed on a monthly basis for […]. Semen analysis at 24 months post-injection indicated the following.

[5] = test system: testes of Sprague Dawley male rats; assay: Example 4: infertility/sterility in rats, dorsal cranial vs midline injection, histopathology of epididymides and testes; type: in vivo, rat; settings: 0.1 ml 10% per testis; for infertility/sterility achieved, share of rats: two months post-injection, 10 rats
Procedure: Twenty (20) Sprague Dawley, male rats were divided into two groups of ten (10) rats per group. […] Two months post-injection, both groups were sacrificed, and all of the epididymides and testes were evaluated by histopathology.

male Beagle puppies = assay: Example 5: exposure of treated dogs to females in heat (copulation, pregnancy); type: in vivo, Beagle dog; settings: for number of the ten dogs that copulated with females: each dog exposed to three females in heat
Description: as §1
Of the ten control placebo dogs, seven copulated with females and pregnancy occurred in all of the females (100% pregnancy rate). Each of the treated dogs was exposed to three different females in heat.

[6] = Total of all six doses, n = 225
[7] = 25 mg per testis, 24 months post-injection, n = 10
[8] = 25 mg per testis, the 10% of dogs with severe oligospermia, 24 months
[9] = dorsal cranial injection, two months

Compound: N=C(N)NCCC[C@H](N)C(=O)O.[Zn] [zinc arginine]
- pattern of testicular shrinkage (testes of a male pig; injection at the dorsal cranial area (FIG. 5)): proportional shrinkage
- pattern of testicular shrinkage (testes of a male pig; injection at the midline (FIG. 4)): disproportional shrinkage

Compound: zinc gluconate neutralized by arginine
- decrease of serum testosterone level compared to control placebo (serum testosterone; 25 mg per testis): 43%
- decrease of serum testosterone level compared to control placebo (serum testosterone; 30 mg per testis): 55%
- decrease of serum testosterone level compared to control placebo (serum testosterone; 35 mg per testis): 52%
- Basement Membrane, Average ([1]; 25 mg per testis): 4.80 μm
- Basement Membrane, Left ([1]; 25 mg per testis): 5.00 μm
- Basement Membrane, Right ([1]; 25 mg per testis): 4.59 μm
- Diameter of Seminiferous Tubule, Average ([1]; 25 mg per testis): 124.00 μm
- Diameter of Seminiferous Tubule, Left ([1]; 25 mg per testis): 116.0 μm
- Diameter of Seminiferous Tubule, Right ([1]; 25 mg per testis): 132.0 μm
- Height of Germinal Epithelium, Average ([1]; 25 mg per testis): 14.10 μm
- Height of Germinal Epithelium, Left ([1]; 25 mg per testis): 11.8 μm
- Height of Germinal Epithelium, Right ([1]; 25 mg per testis): 16.4 μm
- Basement Membrane, Average ([1]; 30 mg per testis): 5.53 μm
- Basement Membrane, Left ([1]; 30 mg per testis): 5.50 μm
- Basement Membrane, Right ([1]; 30 mg per testis): 5.57 μm
- Diameter of Seminiferous Tubule, Average ([1]; 30 mg per testis): 113.75 μm
- Diameter of Seminiferous Tubule, Left ([1]; 30 mg per testis): 115.1 μm
- Diameter of Seminiferous Tubule, Right ([1]; 30 mg per testis): 112.4 μm
- Height of Germinal Epithelium, Average ([1]; 30 mg per testis): 7.20 μm
- Height of Germinal Epithelium, Left ([1]; 30 mg per testis): 5.5 μm
- Height of Germinal Epithelium, Right ([1]; 30 mg per testis): 8.9 μm
- Basement Membrane, Average ([1]; 35 mg per testis): 6.00 μm
- Basement Membrane, Left ([1]; 35 mg per testis): 6.04 μm
- Basement Membrane, Right ([1]; 35 mg per testis): 5.96 μm
- Diameter of Seminiferous Tubule, Average ([1]; 35 mg per testis): 124.05 μm
- Diameter of Seminiferous Tubule, Left ([1]; 35 mg per testis): 124.8 μm
- Diameter of Seminiferous Tubule, Right ([1]; 35 mg per testis): 123.3 μm
- Height of Germinal Epithelium, Average ([1]; 35 mg per testis): 10.30 μm
- Height of Germinal Epithelium, Left ([1]; 35 mg per testis): 9.6 μm
- Height of Germinal Epithelium, Right ([1]; 35 mg per testis): 11.0 μm
- Aspermia (No Semen Ejaculated), number of puppies (testes of male puppies; [6]): 174
- Azoospermia (No Sperm in Ejaculate), number of puppies (testes of male puppies; [6]): 48
- Necrospermia (Sperm in Ejaculate Are Dead or Motionless), number of puppies (testes of male puppies; [6]): 1
- Oligospermia (Less than 20 Million Sperm per ml), number of puppies (testes of male puppies; [6]): 1
- Sperm in Ejaculate Are Motile, number of puppies (testes of male puppies; [6]): 1
- Aspermia (No Semen Ejaculated), number of puppies (testes of male puppies; dose per testis 0.2 ml): 59
- Azoospermia (No Sperm in Ejaculate), number of puppies (testes of male puppies; dose per testis 0.2 ml): 12
- Necrospermia (Sperm in Ejaculate Are Dead or Motionless), number of puppies (testes of male puppies; dose per testis 0.2 ml): 0
- Oligospermia (Less than 20 Million Sperm per ml), number of puppies (testes of male puppies; dose per testis 0.2 ml): 1
- Sperm in Ejaculate Are Motile, number of puppies (testes of male puppies; dose per testis 0.2 ml): 0
- Aspermia (No Semen Ejaculated), number of puppies (testes of male puppies; dose per testis 0.3 ml): 27
- Azoospermia (No Sperm in Ejaculate), number of puppies (testes of male puppies; dose per testis 0.3 ml): 5
- Necrospermia (Sperm in Ejaculate Are Dead or Motionless), number of puppies (testes of male puppies; dose per testis 0.3 ml): 0
- Oligospermia (Less than 20 Million Sperm per ml), number of puppies (testes of male puppies; dose per testis 0.3 ml): 0
- Sperm in Ejaculate Are Motile, number of puppies (testes of male puppies; dose per testis 0.3 ml): 0
- Aspermia (No Semen Ejaculated), number of puppies (testes of male puppies; dose per testis 0.5 ml): 21
- Azoospermia (No Sperm in Ejaculate), number of puppies (testes of male puppies; dose per testis 0.5 ml): 7
- Necrospermia (Sperm in Ejaculate Are Dead or Motionless), number of puppies (testes of male puppies; dose per testis 0.5 ml): 0
- Oligospermia (Less than 20 Million Sperm per ml), number of puppies (testes of male puppies; dose per testis 0.5 ml): 0
- Sperm in Ejaculate Are Motile, number of puppies (testes of male puppies; dose per testis 0.5 ml): 1*
- Aspermia (No Semen Ejaculated), number of puppies (testes of male puppies; dose per testis 0.7 ml): 30
- Azoospermia (No Sperm in Ejaculate), number of puppies (testes of male puppies; dose per testis 0.7 ml): 4
- Necrospermia (Sperm in Ejaculate Are Dead or Motionless), number of puppies (testes of male puppies; dose per testis 0.7 ml): 0
- Oligospermia (Less than 20 Million Sperm per ml), number of puppies (testes of male puppies; dose per testis 0.7 ml): 0
- Sperm in Ejaculate Are Motile, number of puppies (testes of male puppies; dose per testis 0.7 ml): 0
- Aspermia (No Semen Ejaculated), number of puppies (testes of male puppies; dose per testis 0.8 ml): 19
- Azoospermia (No Sperm in Ejaculate), number of puppies (testes of male puppies; dose per testis 0.8 ml): 4
- Necrospermia (Sperm in Ejaculate Are Dead or Motionless), number of puppies (testes of male puppies; dose per testis 0.8 ml): 1
- Oligospermia (Less than 20 Million Sperm per ml), number of puppies (testes of male puppies; dose per testis 0.8 ml): 0
- Sperm in Ejaculate Are Motile, number of puppies (testes of male puppies; dose per testis 0.8 ml): 0
- Aspermia (No Semen Ejaculated), number of puppies (testes of male puppies; dose per testis 1.0 ml): 18
- Azoospermia (No Sperm in Ejaculate), number of puppies (testes of male puppies; dose per testis 1.0 ml): 16
- Necrospermia (Sperm in Ejaculate Are Dead or Motionless), number of puppies (testes of male puppies; dose per testis 1.0 ml): 0
- Oligospermia (Less than 20 Million Sperm per ml), number of puppies (testes of male puppies; dose per testis 1.0 ml): 0
- Sperm in Ejaculate Are Motile, number of puppies (testes of male puppies; dose per testis 1.0 ml): 0
- efficacy (infertility/sterility) (testes of male puppies; six different doses, 225 puppies, at least 6 months of follow-up): 99.6%
- number of puppies (of 225) in which infertility/sterility was achieved (testes of male puppies; six different doses, dorsal cranial, at least 6 months of follow-up): 224
- weight of each excised testis (testis): 3.5 g
- effect on rectal temperature, complete blood count, blood chemistries [2]: no clinical effect
- body weight ([2]; all dogs): increased
- effect on body homeostasis ([2]; dorsal cranial): None of the treatments affected body homeostasis
- testicular swelling post-injection ([2]; for one week post-injection): transient testicular swelling
- testicular measurement after the first week ([2]; p<0.0001, control placebo increased): decreased significantly
- Sperm Concentration of the dog that stayed normal [3]: Normal 70 million/ml
- share of dogs permanently sterilized (azoospermia or aspermia) [4, 7]: 90%
- share of dogs with severe oligospermia [4, 7]: 10%
- Concentration/ml (×10^6) [4, 8]: 0.01 ×10^6/ml
- Motility [4, 8]: 1.00%
- Normal Sperm [4, 8]: 6.70%
- Volume of Ejaculation [4, 8]: 0.74 mL
- share of dogs permanently sterilized (azoospermia or aspermia) ([4]; 30 mg per testis, 24 months post-injection, n = 10): 100%
- share of dogs permanently sterilized (azoospermia or aspermia) ([4]; 35 mg per testis, 24 months post-injection, n = 10): 100%
- overall outcome of one intratesticular injection ([4]; dorsal cranial area, male puppies): permanent sterilization
- function of the testes (histopathology) [5, 9]: complete dysfunction in the testes
- sperm in the epididymides [5, 9]: no sperm were found in the epididymides
- infertility/sterility achieved, share of rats ([5]; dorsal cranial injection): 100%
- function of the testes (histopathology) ([5]; midline injection, two months): some parts of the testes were functioning
- share of epididymides in which sperm were found ([5]; midline injection, two months): 30%
- infertility/sterility achieved, share of rats ([5]; midline injection): 70%
- number of the ten dogs that copulated with females (male Beagle puppies; 25 mg per testis): Two
- number of the ten dogs that copulated with females (male Beagle puppies; 30 mg per testis): five
- number of the ten dogs that copulated with females (male Beagle puppies; 35 mg per testis): four
- pregnancy of females after copulation (male Beagle puppies; 25, 30 and 35 mg per testis, control placebo 100% pregnancy rate): no pregnancy occurred
